Data as given in EP4599821A1, “CANNABIDIOL-COMPRISING LIPOSOMES” (Novozymatic BV, priority 2024, dated 2025).

What was measured:
[1] = Visual appearance of diluted reference and intravenous CBD formulations; format: physicochemical
Source text: As a control for the CBD granules, a commercial product was used, namely Epidyolex.
When comparing the two solutions, the second approach qualified as a suitable injectable formulation for the rat study.

[2] = cited from earlier work

SMILES: C=C(C)[C@@H]1CCC(C)=C[C@H]1c1c(O)cc(CCCCC)cc1O [CBD, cannabidiol]
- visual appearance of intravenous formulation ([1]; first approach: 50 mg/ml in 95% ethanol, diluted to 1 mg/ml in 96% saline and 2% polysorbate 80): formation of fat drops
- visual appearance of intravenous formulation ([1]; second approach: 50 mg/ml in 1:1 ethanol: polysorbate 80, diluted to 1 mg/ml in 98% saline, 10 or 20 min rest): no fat drops and no sediment were observed
- Cmax (maximum concentration) ([2]; 20 mg of orally delivered CBD/THC sprayed onto a gelatin capsule): 2.4 ng/mL
- Time to peak plasma concentration ([2]; oral delivery): 1 to 4 h
